Each structure is given as a SMILES string. Some results are limits rather than exact numbers.

For this data set, the system named is CCO cells. The data set is described as follows: Compounds cytotoxicity assay (CCK-8 cell viability). The format is cell-based. Particulars: channel catfish, 72 h. Here is the method:
The cytotoxicity effects of the selected compounds were detected in CCO cells by the cell viability assay. In brief, the CCO cells were seeded in 96-well plates and cultured to reach approximately 90% confluence in each well at 28°C. Subsequently, the monolayer cells were exposed to a maintenance medium with the tested compounds at different concentrations or DMSO for 72 h. Cell Counting Kit-8 (Beyotime, China) was used to measure the cell viability according to the manufacturer’s protocol after 72 h incubation. The optical density at 450 nm was measured using a Spark microplate reader (TECAN, Switzerland). Then, the maximum safe concentration (≥ 90% cell survived, SC90) of compounds to CCO cells was calculated according to the cell viability.
All data were analyzed with GraphPad Prism 8.0. Viral titers were log10 transformed prior to statistical analyses. The SC90 values were calculated using probit analysis. The data are expressed as the arithmetic mean ± standard deviation (SD) and were analyzed by one-way ANOVA with multiple comparisons test. Statistical significance was defined as *p < 0.05, **p < 0.01.
Figure 1 Cytotoxicity assay. The CCO cells were treated with 12 tested compounds with different concentrations in a 96-well plate for 72 h, and then the cell viability was measured by CCK-8. (A) Kaempferol, (B) Tannic acid, (C) P-Coumaric acid, (D) Magnolol, (E) Baicalein, (F) Genistein, (G) Mangiferin, (H) Rosmarinic acid, (I) Artemisinin, (J) Myricetin, (K) Ginkgolic acid, (L) Shikonin. Data represent mean ± SD normalized to values for DMSO treated group. The SC90 was analyzed and calculated using probit analysis. TEXT PRINTED IN THE PICTURE: (A) Kaempferol: SC90 = 47.53 μg/ml | (B) Tannic acid: SC90 = 90.02 μg/ml | (C) P-Coumaric acid: SC90 ≥500 μg/ml | (D) Magnolol: SC90 = 10.02 μg/ml | (E) Baicalein: SC90 = 29.73 μg/ml | (F) Genistein: SC90 = 13.66 μg/ml | (G) Mangiferin: SC90 ≥500 μg/ml | (H) Rosmarinic acid: SC90 = 46.37 μg/ml | (I) Artemisinin: SC90 ≥500 μg/ml | (J) Myricetin: SC90 = 346.19 μg/ml | (K) Ginkgolic acid: SC90 = 10.89 μg/ml | (L) Shikonin: SC90 = 54.44 μg/ml DOUBTS OF THE COPYIST ABOUT THIS PICTURE: All SC90 values are in small print, so 3, 5, 6, 8 and 9 are hard to tell apart / Kaempferol, SC90: 47.53 (5 or 3 uncertain) / Tannic acid, SC90: 90.02 (9 or 8 uncertain) / Baicalein, SC90: 29.73 (9 or 3 uncertain) / Genistein, SC90: 13.66 (3 and 6 uncertain) / Rosmarinic acid, SC90: 46.37 (6 and 3 uncertain) / Myricetin, SC90: 346.19 (3, 6 and 9 uncertain) / Ginkgolic acid, SC90: 10.89 (8 and 9 uncertain) / Shikonin, SC90: 54.44 (5 uncertain) / P-Coumaric acid, Mangiferin, Artemisinin, SC90: sign ≥ or >; 500 (5 uncertain)
Take `C[C@@H]1CC[C@H]2[C@@H](C)C(=O)O[C@@H]3O[C@@]4(C)CC[C@@H]1[C@]32OO4` [Artemisinin, reference compound]: the “SC90 (maximum safe concentration, ≥ 90% cell survived)” value was at least 500 µg/mL.

Regarding `O=c1cc(-c2ccccc2)oc2cc(O)c(O)c(O)c12` [Baicalein], the “SC90 (maximum safe concentration, ≥ 90% cell survived)” value came out at 29.73 µg/mL.

On to `O=c1c(O)c(-c2cc(O)c(O)c(O)c2)oc2cc(O)cc(O)c12` [Myricetin], for which the “SC90 (maximum safe concentration, ≥ 90% cell survived)” value is 346.19 µg/mL.

The record behind these values is publication PMC10725991, “Kaempferol is a novel antiviral agent against channel catfish virus infection through blocking viral attachment and penetration in vitro” (Frontiers in Veterinary Science, 2023).
